The assay addresses T1, Recombinant human cathepsin A (Homo sapiens, UniProt P10619).
T1 construct: Recombinant human cathepsin A (residues 29-480, with a C-terminal 10-His tag); 10-His (C); purchased R&D Systems 1049-SE
T1 sequence (P10619 29-326 limits assumed): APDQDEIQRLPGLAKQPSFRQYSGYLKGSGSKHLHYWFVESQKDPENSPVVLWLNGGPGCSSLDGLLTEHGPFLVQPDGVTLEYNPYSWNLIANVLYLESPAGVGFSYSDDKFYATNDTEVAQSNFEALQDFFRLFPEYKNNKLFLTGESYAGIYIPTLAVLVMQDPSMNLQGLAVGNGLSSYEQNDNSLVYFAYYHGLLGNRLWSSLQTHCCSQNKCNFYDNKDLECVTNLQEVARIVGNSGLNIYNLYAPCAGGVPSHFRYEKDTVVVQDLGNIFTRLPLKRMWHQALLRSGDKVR
T1 sequence (P10619 327-480 limits assumed): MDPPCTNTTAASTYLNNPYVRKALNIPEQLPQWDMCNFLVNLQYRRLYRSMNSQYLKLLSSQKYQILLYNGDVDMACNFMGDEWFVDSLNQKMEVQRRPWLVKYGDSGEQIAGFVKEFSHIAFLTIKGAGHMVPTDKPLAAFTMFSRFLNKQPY
Nature of the assay: Cathepsin A inhibitory activity. In kind it is biochemical. Particulars: activated recombinant human cathepsin A 833 ng/ml, Bodipy FL-labeled bradykinin substrate 2 μM, pH 5.5, room temperature. The method, boiled down:
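Enzyme (residues 29-480, C-terminal His tag) pre-activated by cathepsin L at 37° C, then quenched with E-64. Compound preincubated 15 min at room temperature in 25 mM MES pH 5.5 with 5 mM DTT, then 2 μM Bodipy FL-bradykinin added for 15 min at 833 ng/ml enzyme. Product/substrate separated by microfluidic capillary electrophoresis; IC50 from multi-concentration inhibition.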
Broadly, the IC50 is the concentration needed to halve the response being measured. For `O=C(O)C[C@H](NC(=O)c1csc(-c2cccc(Cl)c2Cl)n1)c1ccccc1C(F)(F)F` [Example 66, (S)-3-{[2-(2,3-Dichloro-phenyl)-thiazole-4-carbonyl]-amino}-3-(2-trifluoromethyl-phenyl)-propionic acid], the IC50 is 619 nM. In the case of `O=C(O)C[C@H](NC(=O)c1csc(-c2cccc(Cl)c2Cl)n1)c1cccc(Cl)c1` [Example 41, (S)-3-(3-Chloro-phenyl)-3-{[2-(2,3-dichloro-phenyl)-thiazole-4-carbonyl]-amino}-propionic acid], the IC50 turned out to be 583 nM. The figure for `O=C(NCC(C(=O)O)c1ccccc1)c1csc(-c2ccccc2)n1` (stereo not shown) [Example 115, 2-Phenyl-3-[(2-phenyl-thiazole-4-carbonyl)-amino]-propionic acid] is 4880 nM; for `O=C(O)C[C@H](NC(=O)c1csc(-c2ccc(Cl)cc2)n1)c1ccccc1C(F)(F)F` [Example 104, (S)-3-{[2-(4-Chloro-phenyl)-thiazole-4-carbonyl]-amino}-3-(2-trifluoromethyl-phenyl)-propionic acid] it is 5390 nM.

Take `O=C(NCC(C(=O)O)c1ccccc1)c1csc(-c2ccccc2Cl)n1` (stereo not shown) [Example 118, 3-{[2-(2-Chloro-phenyl)-thiazole-4-carbonyl]-amino}-2-phenyl-propionic acid]: the IC50 was 6040 nM. Turning to `Cc1cc(C(F)(F)F)n(-c2nc(C(=O)N[C@@H](CC(=O)O)c3ccccc3C)cs2)n1` [Example 9, (S)-3-{[2-(3-Methyl-5-trifluoromethyl-pyrazol-1-yl)-thiazole-4-carbonyl]-amino}-3-o-tolyl-propionic acid], the IC50 amounted to 3590 nM. For `O=C(O)C[C@H](NC(=O)c1csc(-c2ccc(C(F)(F)F)cc2)n1)c1ccccc1F` [Example 37, (S)-3-(2-Fluoro-phenyl)-3-{[2-(4-trifluoromethyl-phenyl)-thiazole-4-carbonyl]-amino}-propionic acid], the IC50 turned out to be 14700 nM. On to `Cc1ccccc1[C@H](CC(=O)O)NC(=O)c1csc(-c2cnccn2)n1` [Example 8, (S)-3-[(2-Pyrazin-2-yl-thiazole-4-carbonyl)-amino]-3-o-tolyl-propionic acid], for which the IC50 was found to be 2630 nM. For the compound `O=C(O)[C@@H]1CN(C(=O)c2nc(-c3ccc(C(F)(F)F)cc3)cs2)C[C@H]1c1ccccc1` [Example 103, (3S,4R)-4-Phenyl-1-[4-(4-trifluoromethyl-phenyl)-thiazole-2-carbonyl]-pyrrolidine-3-carboxylic acid], the 50% inhibitory concentration (IC50) was above 10000 nM. As for `O=C(O)C[C@H](NC(=O)c1csc(-c2ccccc2F)n1)c1ccccc1` [Example 88, (S)-3-{[2-(2-Fluoro-phenyl)-thiazole-4-carbonyl]-amino}-3-phenyl-propionic acid], the figure is 923 nM; as for `C[C@@](CC(=O)O)(NC(=O)c1nc(-c2ccccc2)cs1)c1ccccc1` [Example 4, (S)-3-Phenyl-3-[(4-phenyl-thiazole-2-carbonyl)-amino]-butyric acid], above 10000 nM; as for `O=C(O)CC(Cc1ccccc1)NC(=O)c1csc(-c2ccc(Cl)cc2)n1` (stereo not shown) [Example 127, 3-{[2-(4-Chloro-phenyl)-thiazole-4-carbonyl]-amino}-4-phenyl-butyric acid], 12600 nM. With `O=C(O)CC(NC(=O)c1csc(-c2cccc(Cl)c2Cl)n1)C1CCCCC1` (stereo not shown) [Example 130, 3-Cyclohexyl-3-{[2-(2,3-dichloro-phenyl)-thiazole-4-carbonyl]-amino}-propionic acid], the IC50 came to 1100 nM. In the case of `O=C(N[C@@H](Cc1ccc(Cl)cc1)C(=O)O)c1csc(-c2ccccc2Cl)n1` [Example 81, (S)-3-(4-Chloro-phenyl)-2-{[2-(2-chloro-phenyl)-thiazole-4-carbonyl]-amino}-propionic acid], the IC50 is above 10000 nM. Turning to `Cc1ccccc1[C@H](CC(=O)O)NC(=O)c1csc(-c2ccccc2F)n1` [Example 87, (S)-3-{[2-(2-Fluoro-phenyl)-thiazole-4-carbonyl]-amino}-3-o-tolyl-propionic acid], the IC50 is 117 nM. As for `Cc1ccccc1-c1nc(C(=O)NCC(C(=O)O)c2ccccc2)cs1` (stereo not shown) [Example 114, 2-Phenyl-3-[(2-o-tolyl-thiazole-4-carbonyl)-amino]-propionic acid], the figure is 7040 nM. As for `O=C(O)C[C@H](NC(=O)c1csc(-c2ccccc2)n1)c1cccc(Cl)c1Cl` [Example 13, (S)-3-(2,3-Dichloro-phenyl)-3-[(2-phenyl-thiazole-4-carbonyl)-amino]-propionic acid], the figure is 176 nM. As for `O=C(O)C[C@H](NC(=O)c1csc(-c2ccccc2)n1)c1ccc(Cl)cc1Cl` [Example 22, (S)-3-(2,4-Dichloro-phenyl)-3-[(2-phenyl-thiazole-4-carbonyl)-amino]-propionic acid], the figure is 544 nM. Turning to `O=C(O)C[C@H](NC(=O)c1csc(-c2ccccc2)n1)c1cccc(Cl)c1` [Example 40, (S)-3-(3-Chloro-phenyl)-3-[(2-phenyl-thiazole-4-carbonyl)-amino]-propionic acid], the IC50 was determined as 821 nM.

For `Cc1ccccc1[C@H](CC(=O)O)NC(=O)c1csc(-c2cccc(Cl)c2Cl)n1` [Example 71, (S)-3-{[2-(2,3-Dichloro-phenyl)-thiazole-4-carbonyl]-amino}-3-o-tolyl-propionic acid], the IC50 turned out to be 126 nM. The figure for `O=C(NCC(C(=O)O)c1ccccc1)c1csc(-c2cccc(Cl)c2)n1` (stereo not shown) [Example 123, 3-{[2-(3-Chloro-phenyl)-thiazole-4-carbonyl]-amino}-2-phenyl-propionic acid] is above 10000 nM; for `O=C(NCC(C(=O)O)c1ccccc1)c1csc(-c2ccccc2F)n1` (stereo not shown) [Example 121, 3-{[2-(2-Fluoro-phenyl)-thiazole-4-carbonyl]-amino}-2-phenyl-propionic acid] it is 12600 nM. The figure for `COc1ccc([C@H](CC(=O)O)NC(=O)c2csc(-c3ccccc3F)n2)cc1` [Example 86, (S)-3-{[2-(2-Fluoro-phenyl)-thiazole-4-carbonyl]-amino}-3-(4-methoxy-phenyl)-propionic acid] is 975 nM; for `O=C(O)C[C@H](NC(=O)c1csc(-c2ccccc2F)n1)c1cccc(Cl)c1` [Example 43, (S)-3-(3-Chloro-phenyl)-3-{[2-(2-fluoro-phenyl)-thiazole-4-carbonyl]-amino}-propionic acid] it is 694 nM; for `Cc1ccccc1[C@H](CC(=O)O)NC(=O)c1csc(-c2ccncc2)n1` [Example 7, (S)-3-[(2-Pyridin-4-yl-thiazole-4-carbonyl)-amino]-3-o-tolyl-propionic acid] it is 805 nM. Consider `O=C(O)C[C@H](NC(=O)c1csc(-c2ccccc2Cl)n1)c1ccccc1Cl` [Example 29, (S)-3-(2-Chloro-phenyl)-3-{[2-(2-chloro-phenyl)-thiazole-4-carbonyl]-amino}-propionic acid], for which the IC50 turned out to be 100 nM. The figure for `O=C(O)C[C@@H](Cc1ccccc1)NC(=O)c1nc(-c2ccccc2)cs1` [Example 1, (R)-4-Phenyl-3-[(4-phenyl-thiazole-2-carbonyl)-amino]-butyric acid] is 1710 nM; for `COc1cccc([C@H](CC(=O)O)NC(=O)c2csc(-c3ccccc3F)n2)c1` [Example 85, (S)-3-{[2-(2-Fluoro-phenyl)-thiazole-4-carbonyl]-amino}-3-(3-methoxy-phenyl)-propionic acid] it is 878 nM.

(Values after patent US9174952B2, “Substituted 3-thiazoloamino-propionic acid derivatives and their use as pharmaceuticals” (SANOFI, priority 2011, dated 2015).)
